Test results: patent US9982005B2, “Macrolides and methods of their preparation and use” (President and Fellows of Harvard College, priority 2013, dated 2018)
In brackets after ≈: the same amount, converted by molar mass. Read-outs that look alike come from different tables or passages of the source.

Assays:
Type in all cases: cell-based
[1] = tested on: Spn1537 S. pneumoniae ermB positive mefA positive; assay: broth dilution MIC, S. pneumoniae Spn1537; conditions: Streptococcus pneumoniae
Description: (§1) We have collected MIC data for a total of 50 novel macrolides that this platform has produced against over 21 unique strains of B. subtilis, E. coli, S. aureus, S. pneumoniae, and H. influenzae, including several multidrug-resistant strains, with a special focus on macrolide resistant mechanisms (vide supra). Azithromycin was included as a control macrolide. CLSI standard procedures for broth dilution MIC determination were used. […] These genotypes can be constitutive or inducible. The finding that C4-epi (unnatural) isomers of the “azaketolide” macrolide class have enhanced activities relative to C4 natural isomers is very exciting.

EC107 E. coli ATCC25922 = assay: broth dilution MIC, E. coli EC107; conditions: Escherichia coli, read-out: MIC
In short: (§2)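 Standard CLSI broth dilution method used for MIC determination. Control: azithromycin.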

[2] = tested on: BS1723 B. subtilis BS168 WT wild type; assay: broth dilution MIC, B. subtilis BS1723; conditions: Bacillus subtilis, BS1723 B. subtilis BS168 WT wild type; read-out: MIC
In short: as §2

K. pneumoniae strains = assay: MIC against K. pneumoniae strains (Table M8); conditions: Klebsiella pneumoniae, K. pneumoniae 10031
[3] = tested on: Spn160 S. pneumoniae ermB unknown mefA positive; assay: broth dilution MIC, S. pneumoniae Spn160; conditions: Streptococcus pneumoniae
Description: as §1

[4] = tested on: Spn 106 S. pneumonia ATCC49619; assay: broth dilution MIC, S. pneumoniae Spn 106; conditions: Streptococcus pneumoniae
Description: as §1

S. aureus strains = assay: MIC against S. aureus strains (Table M7); conditions: Staphylococcus aureus
In short: as §2

[5] = tested on: SA1707 S. aureus ermA negative msrA positive; assay: broth dilution MIC, S. aureus SA1707; conditions: Staphylococcus aureus
Description: as §1

E. coli strains = assay: MIC against E. coli strains (Table M7); conditions: Escherichia coli, ATCC25922, E. coli ATCC 25922
In short: as §2

EC882 E. coli imp = assay: broth dilution MIC, E. coli EC882; conditions: Escherichia coli
In short: as §2

[6] = tested on: SA418 S. aureus ermA negative msrA positive; assay: broth dilution MIC, S. aureus SA418; conditions: Staphylococcus aureus
Description: as §1

S. pneumoniae strains = assay: MIC against S. pneumoniae strains (Tables M7, M8); conditions: Streptococcus pneumoniae
Description: CLSI standard procedures for broth dilution MIC determination were used. […] These genotypes can be constitutive or inducible.

[7] = tested on: HI175 H. influenzae ATCC49247; assay: broth dilution MIC, H. influenzae HI175; conditions: Haemophilus influenzae
Description: as §1

EC878 E. coli tolC = assay: broth dilution MIC, E. coli EC878; conditions: Escherichia coli
In short: as §2

H. influenzae strains = assay: MIC against H. influenzae strains (Table M8); conditions: Haemophilus influenzae
In short: as §2

[8] = tested on: SA557 S. aureus ermA unknown msrA positive; assay: broth dilution MIC, S. aureus SA557; conditions: Staphylococcus aureus; SA557 S. aureus ermA unknown msrA positive; read-out: MIC
Description: as §1

[9] = tested on: SA101 S. aureus ATCC29213; assay: broth dilution MIC, S. aureus SA101; conditions: Staphylococcus aureus, ATCC29213, SA101 S. aureus ATCC29213; read-out: MIC
In short: as §2

[10] = tested on: Spn1509 S. pneumoniae ermB positive mefA negative; assay: broth dilution MIC, S. pneumoniae Spn1509; conditions: Streptococcus pneumoniae; Spn1509 S. pneumoniae ermB positive mefA negative; read-out: MIC
Description: as §1

[11] = tested on: SA1708 S. aureus ermA positive msrA negative; assay: broth dilution MIC, S. aureus SA1708; conditions: Staphylococcus aureus
Description: as §1

[12] = tested on: SA506 S. aureus ermA positive msrA unknown; assay: broth dilution MIC, S. aureus SA506; conditions: Staphylococcus aureus
Description: as §1

A. baumannii strains = assay: MIC against A. baumannii strains (Table M8); conditions: Acinetobacter baumannii, BAA747, A. baumannii BAA747-1
[13] = tested on: Spn1533 S. pneumoniae ermB positive mefA positive; assay: broth dilution MIC, S. pneumoniae Spn1533; conditions: Streptococcus pneumoniae
Description: as §1

HI281 H. influenzae = assay: broth dilution MIC, H. influenzae HI281; conditions: Haemophilus influenzae
Description: as §1

[14] = tested on: SA183 S. aureus ermA positive msrA unknown; assay: broth dilution MIC, S. aureus SA183; conditions: Staphylococcus aureus
Description: as §1

BS1725 B. subtilis ermC = assay: broth dilution MIC, B. subtilis BS1725; conditions: Bacillus subtilis, BS1725 B. subtilis ermC (+ery)
In short: as §2

E. faecalis strains = assay: MIC against E. faecalis strains (Table M8); conditions: Enterococcus faecalis, E. faecalis 29212
[15] = tested on: Spn1427 S. pneumoniae ermB positive mefA negative; assay: broth dilution MIC, S. pneumoniae Spn1427; conditions: Streptococcus pneumoniae
Description: as §1

[16] = tested on: S. aureus (Newman, clinical isolate); assay: MIC, S. aureus Newman; conditions: Staphylococcus aureus, S. aureus (Newman, clinical isolate), round 1
Description: as §1

E. coli (MC4100) = assay: MIC, E. coli MC4100; conditions: Escherichia coli, round 1, read-out: MIC
Description: as §1

[17] = Spn160 S. pneumoniae ermB unknown mefA positive, read-out: MIC
[18] = ATCC29213, S. aureus ATCC 29213, read-out: MIC S. aureus (ATCC 29213)
[19] = S. aureus 506, read-out: MIC S. aureus (506)
[20] = S. aureus 1708, read-out: MIC S. aureus (1708)
[21] = USA300, S. aureus USA300, read-out: MIC S. aureus (USA300)
[22] = S. pneumoniae 1509, read-out: MIC S. pneumoniae (1509)
[23] = S. pneumoniae 1533, read-out: MIC S. pneumoniae (1533)
[24] = S. pneumoniae 1537, read-out: MIC S. pneumoniae (1537)
[25] = H. influenzae 49247, read-out: MIC H. influenzae (49247)
[26] = H. influenzae 49766, read-out: MIC H. influenzae (49766)
[27] = Spn 106 S. pneumonia ATCC49619, read-out: MIC

SMILES | MIC [1] [µg/mL] | MIC (EC107 E. coli ATCC25922) [µg/mL] | MIC [2] [µg/mL] | MIC (K. pneumoniae strains) [µg/mL] | MIC [3, 17] [µg/mL] | MIC (S. aureus strains; [18]) [µg/mL] | MIC (S. aureus strains; [19]) [µg/mL] | MIC (S. aureus strains; [20]) [µg/mL] | MIC (S. aureus strains; [21]) [µg/mL] | MIC [5] [µg/mL] | MIC (E. coli strains) [µg/mL] | MIC [6] [µg/mL] | MIC [7] [µg/mL] | MIC [8] [µg/mL] | MIC [9] [µg/mL] | MIC [10] [µg/mL] | MIC [11] [µg/mL] | MIC [12] [µg/mL] | MIC (HI281 H. influenzae) [µg/mL] | MIC [14] [µg/mL] | other results
CC[C@H]1OC(=O)[C@H](C)C(=O)[C@H](C)[C@@H](O[C@@H]2OC(C)CC(N(C)C)C2O)[C@](C)(OC)C[C@@H](C)CN[C@H](C)[C@H]2N(CCCCn3cc(-c4cccc(N)n4)nn3)C(=O)O[C@]12C (stereo partly shown) [FSM-20715] | > 32 | 4 (≈ 4.82 µM) | 1 (≈ 1.21 µM) | 2 (≈ 2.41 µM) | 0.125 to 0.25 (≈ 0.151 to 0.302 µM) | 1 (≈ 1.21 µM) | > 32 | 2 (≈ 2.41 µM) | 2 (≈ 2.41 µM) | 2 (≈ 2.41 µM) | 8 (≈ 9.65 µM) | 2 (≈ 2.41 µM) | 2 (≈ 2.41 µM) | 1 (≈ 1.21 µM) | 1 to 2 (≈ 1.21 to 2.41 µM) | 0.5 to 2 (≈ 0.603 to 2.41 µM) | 2 (≈ 2.41 µM) | > 32 | 4 (≈ 4.82 µM) | > 32 | MIC ([4]; ATCC49619): 0.0156 to 0.0312 µg/mL (≈ 0.0188 to 0.0376 µM); MIC (EC882 E. coli imp): 0.0312 µg/mL (≈ 0.0376 µM); MIC (S. pneumoniae strains; S. pneumoniae 160, read-out: MIC S. pneumonae (160)): 0.25 µg/mL (≈ 0.302 µM); MIC (S. pneumoniae strains; [22]): 2 µg/mL (≈ 2.41 µM); MIC (S. pneumoniae strains; [23]): > 32 µg/mL; MIC (S. pneumoniae strains; [24]): > 32 µg/mL; MIC (S. pneumoniae strains; S. pneumoniae 49619, read-out: MIC S. pneumoniae (49619)): 0.125 µg/mL (≈ 0.151 µM); MIC (EC878 E. coli tolC): 0.5 µg/mL (≈ 0.603 µM); MIC (H. influenzae strains; [25]): 0.5 µg/mL (≈ 0.603 µM); MIC (H. influenzae strains; [26]): 2 µg/mL (≈ 2.41 µM); MIC (A. baumannii strains): 8 µg/mL (≈ 9.65 µM); MIC [13]: > 32 µg/mL; MIC (BS1725 B. subtilis ermC): 16 µg/mL (≈ 19.3 µM); MIC (E. faecalis strains): 0.25 µg/mL (≈ 0.302 µM)
CC[C@H]1OC(=O)[C@H](C)C(=O)[C@H](C)[C@@H](O[C@@H]2OC(C)CC(N(C)C)C2O)[C@](C)(OC)C[C@@H](C)C(=O)N[C@H](C)[C@H]2N(CCCCn3cc(-c4ccccn4)nn3)C(=O)O[C@]12C (stereo partly shown) [FSM-20781] | > 32 | – | – | – | > 32 | – | – | – | – | > 32 | – | > 32 | > 32 | > 32 | > 32 | > 32 | > 32 | > 32 | 32 (≈ 38.6 µM) | > 32 | MIC [4, 27]: 8 µg/mL (≈ 9.66 µM); MIC [15]: > 32 µg/mL; MIC [13]: > 32 µg/mL
CC[C@H]1OC(=O)C(C)(F)C(=O)[C@H](C)[C@@H](O[C@@H]2OC(C)CC(N(C)C)C2O)[C@](C)(OC)C[C@@H](C)CN[C@H](C)[C@H]2N(CCCCn3cc(-c4ccccn4)nn3)C(=O)O[C@]12C (stereo partly shown) [FSM-20738] | > 32 | 8 (≈ 9.62 µM) | 0.25 (≈ 0.3 µM) | 4 (≈ 4.81 µM) | – | 0.5 (≈ 0.601 µM) | > 32 | 0.5 (≈ 0.601 µM) | 1 (≈ 1.2 µM) | 1 (≈ 1.2 µM) | 8 (≈ 9.62 µM) | 1 (≈ 1.2 µM) | 0.5 to 8 (≈ 0.601 to 9.62 µM) | 1 (≈ 1.2 µM) | 0.5 to 1 (≈ 0.601 to 1.2 µM) | 0.5 to 8 (≈ 0.601 to 9.62 µM) | 2 (≈ 2.4 µM) | > 32 | 4 to 32 (≈ 4.81 to 38.5 µM) | > 32 | MIC [16]: 1 µg/mL (≈ 1.2 µM); MIC [3]: 0.0625 to 1 µg/mL (≈ 0.0751 to 1.2 µM); MIC [4, 27]: 0.0156 to 0.25 µg/mL (≈ 0.0187 to 0.3 µM); MIC [15]: > 32 µg/mL; MIC (EC882 E. coli imp): 0.0625 µg/mL (≈ 0.0751 µM); MIC (E. coli (MC4100)): 8 µg/mL (≈ 9.62 µM); MIC (S. pneumoniae strains; [22]): 2 µg/mL (≈ 2.4 µM); MIC (S. pneumoniae strains; [23]): > 32 µg/mL; MIC (S. pneumoniae strains; [24]): > 32 µg/mL; MIC (S. pneumoniae strains; read-out: MIC S. pneumonae (160)): ≤ 0.0625 µg/mL; MIC (S. pneumoniae strains; read-out: MIC S. pneumoniae (49619)): ≤ 0.0625 µg/mL; MIC (EC878 E. coli tolC): 1 µg/mL (≈ 1.2 µM); MIC (H. influenzae strains; [25]): 0.5 µg/mL (≈ 0.601 µM); MIC (H. influenzae strains; [26]): 4 µg/mL (≈ 4.81 µM); MIC (A. baumannii strains): 32 µg/mL (≈ 38.5 µM); MIC (BS1725 B. subtilis ermC): 4 µg/mL (≈ 4.81 µM); MIC (E. faecalis strains): 0.125 µg/mL (≈ 0.15 µM)
